Values joined by “and” are separate entries in the source; they are usually repeats but may differ in a detail not shown here. Equal values may be shown once. Read-outs that look alike come from different tables or passages of the source.
Tests used:
[1] = tested on: α-glucosidase (from Saccharomyces cerevisiae); assay: Activation (hydrolysis) of Taxifolin glucoside by an α-glucosidase preparation; type: biochemical; conditions: 18 hours, 30° C., potassium phosphate buffer 0.1 M
Method: The reaction media were analysed by HPLC (method 2) after a 2-fold dilution of an aliquot with methanol.

[2] = background statement; cited from earlier work
Solubility in water = type: physicochemical; conditions: 25° C.

In the case of “taxifolin O-α-glucoside [Taxifolin glucoside]”, the “conversion of Taxifolin glucoside in the presence of the α-glucosidase enzyme” value ([1]; pH 7.3) is reported as “totally converted into Taxifolin”, the “stability of Taxifolin glucoside in the medium without α-glucosidase enzyme” value ([1]; pH 7.3, no enzyme) is reported as “remained unchanged” and the “colour or odour changes on storage” value (4° C., 22° C., 37° C. and 45° C., 4 months) is reported as “No colour or odour changes”. For the same compound, the “Measured quantity of taxifolin glucoside (in % of the initial quantity)” value (day 0, stored at +4° C.) was 100%, the “Measured quantity of taxifolin glucoside (in % of the initial quantity)” value (day 0, stored at +22° C.) was 100% and the “Measured quantity of taxifolin glucoside (in % of the initial quantity)” value (day 0, stored at +37° C.) was 100%. For the same compound, the “Measured quantity of taxifolin glucoside (in % of the initial quantity)” value (day 0, stored at +45° C.) was 100%, the “Measured quantity of taxifolin glucoside (in % of the initial quantity)” value (day 9, stored at +4° C.) was 100% and the “Measured quantity of taxifolin glucoside (in % of the initial quantity)” value (day 9, stored at +22° C.) was 100%. The “Measured quantity of taxifolin glucoside (in % of the initial quantity)” value (day 9, stored at +37° C.) was 100%, the “Measured quantity of taxifolin glucoside (in % of the initial quantity)” value (day 9, stored at +45° C.) was 100% and the “Measured quantity of taxifolin glucoside (in % of the initial quantity)” value (day 23, stored at +4° C.) was 100%. The “Measured quantity of taxifolin glucoside (in % of the initial quantity)” value (day 23, stored at +22° C.) was 100%, the “Measured quantity of taxifolin glucoside (in % of the initial quantity)” value (day 23, stored at +37° C.) was 100% and the “Measured quantity of taxifolin glucoside (in % of the initial quantity)” value (day 23, stored at +45° C.) was 91%. The “Measured quantity of taxifolin glucoside (in % of the initial quantity)” value (day 37, stored at +4° C.) was 100%, the “Measured quantity of taxifolin glucoside (in % of the initial quantity)” value (day 37, stored at +22° C.) was 100% and the “Measured quantity of taxifolin glucoside (in % of the initial quantity)” value (day 37, stored at +37° C.) was 100%. For the same compound, the “Measured quantity of taxifolin glucoside (in % of the initial quantity)” value (day 37, stored at +45° C.) was 94%, the “Measured quantity of taxifolin glucoside (in % of the initial quantity)” value (day 63, stored at +4° C.) was 100% and the “Measured quantity of taxifolin glucoside (in % of the initial quantity)” value (day 63, stored at +22° C.) was 95%. For the same compound, the “Measured quantity of taxifolin glucoside (in % of the initial quantity)” value (day 63, stored at +37° C.) was 96%, the “Measured quantity of taxifolin glucoside (in % of the initial quantity)” value (day 63, stored at +45° C.) was 79% and the “Measured quantity of taxifolin glucoside (in % of the initial quantity)” value (day 118, stored at +4° C.) was 100%. The “Measured quantity of taxifolin glucoside (in % of the initial quantity)” value (day 118, stored at +22° C.) was 100%, the “Measured quantity of taxifolin glucoside (in % of the initial quantity)” value (day 118, stored at +37° C.) was 91% and the “Measured quantity of taxifolin glucoside (in % of the initial quantity)” value (day 118, stored at +45° C.) was 73%.

In the case of `O=C1c2c(O)cc(O)cc2OC(c2ccc(O)c(O)c2)C1O` (centres unmarked) [Taxifolin, 3,5,7,3′,4′-pentahydroxyflavanone], the “solubility in aqueous solution” value [2] is listed as “around 1 g/l” and the solubility (Solubility in water) is listed as 1190 µg/mL and 3910 µM.

Reference: patent publication US9828407B2, “Water soluble and activable phenolic derivatives with dermocosmetic and therapeutic applications and process for preparing said derivatives” (LIBRAGEN, priority 2006, dated 2017)
